Calls of active or inactive are those of the source. The rule behind the calls is not given here.
Columns and labels:
[1] = Tmax in male Sprague-Dawley rat at 30 mg/kg/day, po measured at day 14; format: ADME, organism-based; conditions: in vivo, time 14 day
[2] = Tmax in male Sprague-Dawley rat at 2 mg/kg/day, po measured at day 1; format: ADME, organism-based; conditions: in vivo, time 1 day
[3] = in vitro; conditions: dog, hepatocytes
[4] = system: MC-38; assay: Synergistic antitumor activity against mouse MC38 cells implanted in C57BL/6J mouse assessed as reduction in tumor volume at 1 mg/kg, po bid administered for 3 to 4 weeks in presence of 5 mg/kg anti-PD1 and measured twice a week (reference value: 1549.22 +/- 217.92 mm3); format: functional; conditions: time 3-4 weeks
[5] = system: MC-38; assay: Antitumor activity against mouse MC38 cells implanted in C57BL/6J mouse assessed as reduction in tumor weight at 100 mg/kg, po QD administered for 3 to 4 weeks (reference value: 1.79 +/- 0.24 g); format: functional; conditions: time 3-4 weeks
[6] = Plasma protein binding in human at 10 uM incubated for 6 hrs by equilibrium dialysis based LC-MS/MS method; format: ADME, cell-free; conditions: read-out: PPB
[7] = AUCinfinity in C57BL/6J mouse at 10 mg/kg, po measured upto 24 hrs by LC-MS analysis; format: ADME, organism-based; conditions: in vivo
[8] = Metabolic stability in rat liver microsomes assessed as intrinsic clearance at 1 uM incubated for 45 mins by LC-MS/MS method; format: ADME, Microsome; conditions: read-out: CLH
[9] = in vivo; conditions: male, Sprague-Dawley, rat, po, 2 mg/kg
[10] = system: MC-38; assay: Synergistic antitumor activity against mouse MC38 cells implanted in C57BL/6J mouse assessed as reduction in tumor weight at 0.1 mg/kg, po bid administered for 3 to 4 weeks in presence of 5 mg/kg anti-PD1 and measured twice a week (reference value: 1.79 +/- 0.24 g); format: functional; conditions: time 3-4 weeks
[11] = Toxicity in Sprague-Dawley rat assessed as efficacy dose exposure measured after 14 days; conditions: in vivo
[12] = system: MC-38; assay: Antitumor activity against mouse MC38 cells implanted in C57BL/6J mouse assessed as reduction in tumor weight at 0.5 mg/kg, po BID administered for 3 to 4 weeks (reference value: 1.79 +/- 0.24 g); format: functional; conditions: time 3-4 weeks
[13] = Apparent permeability across basolateral to apical side in human Caco-2 cells at 10 uM incubated for 2 hrs by LC-MS/MS analysis; format: ADME, cell-based
[14] = AUC(0 to 24 hrs) in male Sprague-Dawley rat at 30 mg/kg/day, po measured at day 1; format: ADME, organism-based; conditions: in vivo, time 1 day
[15] = in vivo; conditions: female, Sprague-Dawley, rat, po, 100 mg/kg
[16] = biological target: T1, Protein cereblon/Mitogen-activated protein kinase kinase kinase kinase 1 (Homo sapiens, UniProt Q92918+Q96SW2); assay: PROTAC activity at CRBN/HPK1 in human Jurkat cells assessed as HPK1 degradation at 300 nM measured after 24 hrs by Western blotting analysis; format: cell-based
T1 sequence (Q92918 whole entry, looked up): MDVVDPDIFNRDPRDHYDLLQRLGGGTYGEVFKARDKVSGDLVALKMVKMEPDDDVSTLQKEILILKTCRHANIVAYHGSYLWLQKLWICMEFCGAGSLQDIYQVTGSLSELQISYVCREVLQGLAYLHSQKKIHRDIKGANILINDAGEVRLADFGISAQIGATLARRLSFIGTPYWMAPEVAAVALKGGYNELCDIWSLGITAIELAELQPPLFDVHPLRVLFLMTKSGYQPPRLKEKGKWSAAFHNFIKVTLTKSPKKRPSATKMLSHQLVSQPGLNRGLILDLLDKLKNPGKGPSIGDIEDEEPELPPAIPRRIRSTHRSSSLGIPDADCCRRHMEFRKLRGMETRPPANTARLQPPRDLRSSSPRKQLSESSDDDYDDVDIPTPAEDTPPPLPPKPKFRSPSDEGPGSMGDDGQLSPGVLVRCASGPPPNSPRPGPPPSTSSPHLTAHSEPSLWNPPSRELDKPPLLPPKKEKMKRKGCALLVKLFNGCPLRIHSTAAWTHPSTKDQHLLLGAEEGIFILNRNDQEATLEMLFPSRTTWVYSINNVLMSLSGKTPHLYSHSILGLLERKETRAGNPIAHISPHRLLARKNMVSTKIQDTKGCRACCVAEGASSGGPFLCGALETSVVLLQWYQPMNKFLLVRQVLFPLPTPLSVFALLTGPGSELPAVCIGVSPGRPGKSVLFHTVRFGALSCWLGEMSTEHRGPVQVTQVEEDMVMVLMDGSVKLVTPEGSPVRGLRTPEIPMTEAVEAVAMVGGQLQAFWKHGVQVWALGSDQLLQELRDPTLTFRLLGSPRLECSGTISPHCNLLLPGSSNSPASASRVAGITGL
T1 sequence (Q96SW2 whole entry, looked up): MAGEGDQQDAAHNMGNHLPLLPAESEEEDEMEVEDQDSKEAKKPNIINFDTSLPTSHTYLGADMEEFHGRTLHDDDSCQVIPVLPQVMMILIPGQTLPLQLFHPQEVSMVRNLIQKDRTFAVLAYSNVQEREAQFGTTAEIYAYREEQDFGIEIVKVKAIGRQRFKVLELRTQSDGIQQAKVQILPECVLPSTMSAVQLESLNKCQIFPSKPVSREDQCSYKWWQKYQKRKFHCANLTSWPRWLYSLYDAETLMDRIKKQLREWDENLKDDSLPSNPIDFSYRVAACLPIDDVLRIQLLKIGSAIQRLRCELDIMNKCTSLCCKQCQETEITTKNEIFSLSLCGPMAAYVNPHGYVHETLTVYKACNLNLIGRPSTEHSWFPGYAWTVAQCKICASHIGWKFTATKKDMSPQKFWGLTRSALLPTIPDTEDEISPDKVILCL

[17] = in vivo; conditions: male, Sprague-Dawley, rat, po, 2 mg/kg; remark: listed apart in the source
[18] = biological target: Mitogen-activated protein kinase kinase kinase kinase 4 (Homo sapiens) (UniProt O95819); assay: Induction of HGK degradation in human Jurkat cells at 1 to 1000 nM incubated for 24 hrs by Western blotting analysis; format: cell-based; conditions: dose 1-1000 nM
Chain of Mitogen-activated protein kinase kinase kinase kinase 4 (Homo sapiens) (O95819 2-1239 limits assumed): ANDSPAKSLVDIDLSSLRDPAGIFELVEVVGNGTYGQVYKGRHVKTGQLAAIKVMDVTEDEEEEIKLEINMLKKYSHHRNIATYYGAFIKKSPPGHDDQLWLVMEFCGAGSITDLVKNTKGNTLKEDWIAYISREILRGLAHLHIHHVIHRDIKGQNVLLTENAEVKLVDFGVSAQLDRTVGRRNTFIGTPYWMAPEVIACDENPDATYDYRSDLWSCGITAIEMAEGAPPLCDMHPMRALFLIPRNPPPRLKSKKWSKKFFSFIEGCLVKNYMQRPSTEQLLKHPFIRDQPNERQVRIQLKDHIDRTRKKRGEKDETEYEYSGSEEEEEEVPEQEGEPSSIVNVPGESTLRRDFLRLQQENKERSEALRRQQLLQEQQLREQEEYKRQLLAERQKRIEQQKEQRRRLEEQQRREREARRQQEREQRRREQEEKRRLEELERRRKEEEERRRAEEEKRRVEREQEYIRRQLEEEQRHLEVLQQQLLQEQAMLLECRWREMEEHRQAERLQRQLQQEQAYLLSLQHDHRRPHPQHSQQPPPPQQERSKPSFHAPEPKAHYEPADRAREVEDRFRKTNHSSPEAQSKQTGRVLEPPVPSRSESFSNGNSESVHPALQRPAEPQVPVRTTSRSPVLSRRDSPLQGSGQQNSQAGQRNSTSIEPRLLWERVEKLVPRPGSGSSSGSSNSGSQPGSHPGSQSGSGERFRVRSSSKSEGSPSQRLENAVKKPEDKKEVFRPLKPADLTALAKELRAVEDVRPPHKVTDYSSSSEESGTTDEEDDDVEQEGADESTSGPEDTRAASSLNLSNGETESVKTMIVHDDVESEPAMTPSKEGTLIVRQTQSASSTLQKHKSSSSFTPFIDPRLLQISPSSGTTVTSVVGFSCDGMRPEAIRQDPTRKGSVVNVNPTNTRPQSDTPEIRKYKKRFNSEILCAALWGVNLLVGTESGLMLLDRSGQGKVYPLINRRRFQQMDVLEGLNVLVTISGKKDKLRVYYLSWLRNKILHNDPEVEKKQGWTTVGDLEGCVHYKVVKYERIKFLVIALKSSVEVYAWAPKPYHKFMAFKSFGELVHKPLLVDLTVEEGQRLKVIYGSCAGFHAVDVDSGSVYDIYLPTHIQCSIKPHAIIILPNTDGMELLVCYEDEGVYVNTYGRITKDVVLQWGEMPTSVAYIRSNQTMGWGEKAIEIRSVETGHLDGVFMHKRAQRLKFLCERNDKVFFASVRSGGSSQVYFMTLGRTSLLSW

[19] = Tmax in female Sprague-Dawley rat at 2 mg/kg/day, po measured at day 14; format: ADME, organism-based; conditions: in vivo, time 14 day
[20] = Metabolic stability in mouse hepatocytes assessed as intrinsic clearance at 1 uM incubated for 90 mins by LC-MS/MS method; format: ADME, cell-based, Hepatocyte; conditions: 1.5 h
[21] = Effect on action potential in rabbit purkinje fibers; format: toxicity, tissue-based, Oryctolagus cuniculus, Purkinje fiber
[22] = Metabolic stability in rat hepatocytes assessed as intrinsic clearance at 1 uM incubated for 90 mins by LC-MS/MS method; format: ADME, cell-based, Hepatocyte; conditions: 1.5 h
[23] = in vitro; conditions: human, hepatocytes
[24] = Tmax in female Sprague-Dawley rat at 30 mg/kg/day, po measured at day 14; format: ADME, organism-based; conditions: in vivo, time 14 day
[25] = system: MC-38; assay: Antitumor activity against mouse MC38 cells implanted in C57BL/6J mouse assessed as reduction in tumor volume at 0.5 mg/kg, po BID administered for 3 to 4 weeks (reference value: 1549.22 +/- 217.92 mm3); format: functional; conditions: time 3-4 weeks
[26] = Half-life in C57BL/6J mouse at 2 mg/kg, iv measured upto 24 hrs by LC-MS analysis; conditions: in vivo
[27] = Tmax in female Sprague-Dawley rat at 30 mg/kg/day, po measured at day 1; format: ADME, organism-based; conditions: in vivo, time 1 day
[28] = system: MC-38; assay: Antitumor activity against mouse MC38 cells implanted in C57BL/6J mouse assessed as reduction in tumor weight at 1 mg/kg, po BID administered for 3 to 4 weeks (reference value: 1.79 +/- 0.24 g); format: functional; conditions: time 3-4 weeks
[29] = biological target: T1, Protein cereblon/Mitogen-activated protein kinase kinase kinase kinase 1; assay: PROTAC activity at CRBN/HPK1 in human Jurkat cells assessed as HPK1 degradation at 0.01 uM measured after 24 hrs by Western blotting analysis; format: cell-based
[30] = Drug metabolism in rat hepatocytes assessed as phase 1 metabolites formation at 10 uM incubated for 120 mins by UHPLC-UV/MS/MS method; format: ADME, cell-based, Hepatocyte; conditions: 2 h
[31] = Metabolic stability in monkey hepatocytes assessed as intrinsic clearance at 1 uM incubated for 90 mins by LC-MS/MS method; format: ADME, cell-based, Macaca mulatta, Hepatocyte; conditions: rhesus monkey, 1.5 h
[32] = system: MC-38; assay: Antitumor activity against mouse MC38 cells implanted in C57BL/6J mouse assessed as tumor growth inhibition at 100 mg/kg, po QD administered for 4 weeks; format: functional; conditions: MC-38, 672 h, read-out: TGI
[33] = Drug metabolism in dog hepatocytes assessed as phase 1 metabolites formation at 10 uM incubated for 120 mins by UHPLC-UV/MS/MS method; format: ADME, cell-based, Canis lupus familiaris, Hepatocyte; conditions: 2 h
[34] = system: MC-38; assay: Antitumor activity against mouse MC38 cells implanted in C57BL/6J mouse assessed as tumor growth inhibition at 0.5 mg/kg, po BID measured after 4 weeks; format: functional; conditions: MC-38, 672 h, read-out: TGI
[35] = biological target: Cytochrome P450 3A4 (Homo sapiens, UniProt P08684); assay: Inhibition of CYP3A4 in human liver microsomes using testosterone as substrate in presence of NADPH; format: ADME, Microsome
Chain of Cytochrome P450 3A4 (P08684 whole entry): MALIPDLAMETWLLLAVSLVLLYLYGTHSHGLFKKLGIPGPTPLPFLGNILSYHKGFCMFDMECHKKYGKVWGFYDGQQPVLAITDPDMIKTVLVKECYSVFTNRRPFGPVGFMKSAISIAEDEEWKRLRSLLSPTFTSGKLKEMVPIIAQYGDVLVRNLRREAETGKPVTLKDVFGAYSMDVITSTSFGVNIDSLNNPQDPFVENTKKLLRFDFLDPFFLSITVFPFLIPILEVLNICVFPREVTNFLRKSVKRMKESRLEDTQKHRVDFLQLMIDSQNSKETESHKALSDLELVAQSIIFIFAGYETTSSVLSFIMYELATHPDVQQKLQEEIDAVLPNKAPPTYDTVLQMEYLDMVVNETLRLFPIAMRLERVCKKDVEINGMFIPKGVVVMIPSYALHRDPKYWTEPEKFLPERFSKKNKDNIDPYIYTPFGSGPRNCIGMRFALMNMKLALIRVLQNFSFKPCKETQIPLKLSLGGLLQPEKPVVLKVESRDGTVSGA

[36] = system: MC-38; assay: Antitumor activity against mouse MC38 cells implanted in C57BL/6J mouse assessed as reduction in tumor volume at 0.1 mg/kg, po BID administered for 3 to 4 weeks (reference value: 1549.22 +/- 217.92 mm3); format: functional; conditions: time 3-4 weeks
[37] = in vitro; conditions: human, liver microsomes
[38] = in vivo; conditions: female, Sprague-Dawley, rat, po, 30 mg/kg
[39] = in vivo; conditions: Sprague-Dawley, rat, po, 1 mg/kg
[40] = In vivo induction of phosphorylated SLP-76 degradation in C57BL/6J mouse spleen at 0.5 mg/kg administered as single dose and measured after 12 hrs; format: functional
[41] = in vitro; conditions: rhesus monkey, liver microsomes

Tmax [1]: 8 h
Tmax [2]: 8.67 h
half-life at 1.5 h, 1 µM [3]: 208 min
fraction unbound at 6 h, 10 µM [6]: 0.001
AUC(0-inf) [7]: 12100 ng·h/mL
microsomal CLint at 1 µM [8]: 5.62 µL/min/mg
Cmax at 336 h [9]: 64.2 ng/mL
Papp B→A at 2 h, 10 µM [13]: 0.112 ×10⁻⁶ cm/s
AUC(0-t) at 24 h [14]: 38200 ng·h/mL
Cmax at 336 h [15]: 8590 ng/mL
Activity [16]: Active
Cmax at 24 h [17]: 84 ng/mL
Activity [18]: inactive
Tmax [19]: 6 h
CLH [20]: 1.52 µL/min/mg
CLH [22]: 2.97 µL/min/mg
half-life at 1.5 h, 1 µM [23]: 361 min
Tmax [24]: 8.67 h
half-life at 24 h [26]: 70.2 min
Tmax [27]: 8 h
Activity [29]: Active
Drug metabolism [30]: metabolite_detected
CLH [31]: 8.85 µL/min/mg
Drug metabolism [33]: metabolite_detected
IC50 [35]: > 10 µM
half-life at 0.75 h, 1 µM [37]: > 300 min
Cmax at 336 h [38]: 4210 ng/mL
Cmax at 24 h [39]: 98.7 ng/mL
half-life at 0.75 h, 1 µM [41]: 36.4 min
Compound: O=C1CCN(c2cc(C(=O)N3CCC(CC4CCN(c5ccc(-c6cnc7[nH]cc(-c8cnn(CC(F)(F)F)c8)c7n6)cn5)CC4)CC3)ccc2Cl)C(=O)N1
Activity [4]: 338.13 mm3
Activity [5]: 0.92 g
Activity [10]: 1.17 g
AUC at 336 h [11]: 291 ng·h/mL
Activity [12]: 1.04 g
Activity [21]: Non-toxic
Activity [25]: 752.98 mm3
Activity [28]: 1.56 g
inhibition in vivo at 100 mg/kg [32]: 56.9%
inhibition in vivo at 0.5 mg/kg [34]: 51.4%
Activity [36]: 1107.91 mm3
Emax at 0.5 mg/kg [40]: 77.6%

From ChEMBL document CHEMBL6092203, “Discovery of Novel PROTAC-Based HPK1 Degraders with High Potency and Selectivity for Cancer Immunotherapy” (J Med Chem, 2024)
